Reference: ChEMBL document CHEMBL1201862, “PubChem BioAssay data set” (2004)
The source made the active and inactive calls.

How the values were obtained:
[1] = target: Heat shock protein HSP 90-alpha (Homo sapiens, UniProt P07900); experiment: Luminescence-based dose response biochemical high throughput screening assay for inhibitors of the Heat Shock Protein 90 (HSP90). [Related pubchem assays: 1831 (Summary AID.), 1846 (Confirmation screen.), 1789 (Primary screen.)]
[2] = target: Cytochrome P450 3A4 (Homo sapiens, UniProt P08684);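 note: CYP3A4 tested as one member of a cytochrome P450 panel screen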
[3] = test system: HT-1080; experiment: HT1080 cell viability loss – fluorescence readout (AID 620); type: functional, cell-based; settings: Homo sapiens
[4] = test system: INS1; experiment: INS-1E survival protection against cytokine death – cell-based, luminescence, retest, dose response (AID 449756); type: functional; settings: Rattus norvegicus;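 note: cell death triggered by IL-1 beta plus TNF-alpha plus IFN-gamma mixture; protective hits raise ATP signal compared with cytokine alone wells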
[5] = target: Protein Wnt-3a (Mus musculus, UniProt P27467); experiment: antagonism of Wnt3a pathway luciferase reporter – Wnt-LIGHT cells, luminescence, selectivity assay for Gli-SUFU antagonist project, dose response (AID 651570); type: functional; settings: read-out: IC50_Mean;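 note: Wnt-LIGHT reporter cells stimulated with conditioned medium from Wnt3a-producing cells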
[6] = rise of 2N DNA cells, HeLa – IC50, dose response (AID 1117349); type: functional, cell-based
[7] = rise of 4N DNA cells, HeLa – IC50, dose response (AID 1117351); type: functional, cell-based
[8] = test system: Vero; experiment: cells; type: functional, cell-based; settings: Chlorocebus sabaeus
[9] = test system: Vero; experiment: cells; type: functional; settings: Chlorocebus sabaeus
[10] = A Cell-Based Counter Screen testing Compounds that Inhibit VEEV TC-83, in strain KU V3526.; type: functional
[11] = A Cell-Based Confirmatory Screen for Compounds that Inhibit VEEV, TC-83 (8).; type: functional
[12] = A Cell-Based Confirmatory Screen for Compounds that Inhibit VEEV, TC-83 (2).; type: functional
[13] = growth inhibition of yeast DHODH-expressing 3D7 parasites – SYBR Green, dry powder samples, dose response (AID 1159570); type: functional, cell-based;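 note: parasite growth measured after 72 hours of compound exposure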
[14] = toxicity to human HepG2 hepatoma cells – cell-based, plate reader, dry powder samples, cytotoxicity control, dose response (AID 1159569); type: functional;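 note: inhibitor potency with signal falling toward the positive control level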
[15] = P. falciparum Dd2 growth inhibitors, dose response, SYBR Green, cherry-picked samples (AID 1159567); type: functional, cell-based
[16] = Dd2 malaria parasite growth inhibition potency – SYBR Green, dry powder samples, dose response (AID 1159566); type: functional, cell-based;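 note: potency for growth inhibition with lower SYBR green DNA signal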
[17] = Plasmodium falciparum Dd2 Sybr green parasite growth Measured in Cell-Based and Microorganism Combination System Using Plate Reader - 2153-01_Inhibitor_Dose_DryPowder_Activity_Set3.; type: functional
[18] = growth inhibition of PfATP4-mutant resistant parasites – NITD609-resistant line, SYBR Green, dry powder, dose response (AID 1159571); type: functional, cell-based;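 note: parasites synchronized at ring stage by sorbitol before testing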
[19] = target: Solute carrier family 12 member 2/member 5 (Homo sapiens, UniProt P55011+Q9H2X9); experiment: KCC2 and NKCC1 inhibition by rubidium flux, cell-based, NKCC1 counter-screen (AID 1734); type: functional, HEK293
[20] = Luminescence Cell-Based Dose Response HTS to Identify Inhibitors of 5'UTR Stem-Loop Driven Prion Protein mRNA Translation in H4 Neuroglioblastoma Cells. [Related pubchem assays: 1827 (Project Summary), 1813 (Primary HTS)]; type: functional
[21] = A549 cell cytotoxicity, dose response, cytotoxicity control, plate reader, cherry-pick, antagonist series (AID 743412); type: functional, cell-based
[22] = toxicity toward HepG2 liver cells – cell-based, plate reader, cherry-pick, antagonist series, cytotoxicity control, dose response (AID 743416); type: functional
[23] = blockers of bursicon-stimulated LGR2 cAMP reporter – cell-based, HEK293, CRE-luciferase reporter, cherry pick, set 2, dose response (AID 743343); type: functional;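 note: transfected cells were stimulated with diluted bursicon conditioned medium after compound addition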
[24] = blockade of melanocortin 4 receptor signaling – cell-based, plate reader, cherry pick, counter-screen for LGR2 antagonist project, dose response (AID 743444); type: functional;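 note: transfected HEK 293 cells stimulated with alpha-MSH peptide; potency of inhibitors of the alpha-MSH evoked signal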
[25] = target: T1, Oxysterols receptor LXR-beta (Homo sapiens, UniProt P55055); type: functional, cell-based;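 note: Cell-based luminescence dose-response assay of agonist activity at LXR, run as a confirmatory counterscreen to a daf-12 agonist screen; HEK293 cells with Gal4-LXR fusion and GAL4-driven luciferase reporter; agonist potency from rising luciferase signal of a Gal4-LXR reporter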
T1 sequence (P55055 whole entry): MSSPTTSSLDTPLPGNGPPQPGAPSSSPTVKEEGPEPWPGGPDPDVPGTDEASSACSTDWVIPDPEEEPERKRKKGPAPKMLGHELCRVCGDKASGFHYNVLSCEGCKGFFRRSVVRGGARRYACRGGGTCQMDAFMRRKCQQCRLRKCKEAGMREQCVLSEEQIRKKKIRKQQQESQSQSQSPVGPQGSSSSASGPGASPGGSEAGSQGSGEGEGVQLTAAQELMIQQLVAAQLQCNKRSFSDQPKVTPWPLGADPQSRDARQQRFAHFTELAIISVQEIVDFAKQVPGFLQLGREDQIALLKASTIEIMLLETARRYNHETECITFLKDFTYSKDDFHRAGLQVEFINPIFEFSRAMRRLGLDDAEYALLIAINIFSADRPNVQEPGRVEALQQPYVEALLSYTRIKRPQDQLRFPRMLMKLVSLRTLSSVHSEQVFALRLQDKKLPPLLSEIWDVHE

[26] = cells
[27] = inhibitors of non-replicating M. tuberculosis, dose response, luciferase, dry powder (AID 651619); type: functional; settings: Mycobacterium tuberculosis
[28] = inhibitors of non-replicating M. tuberculosis, dose response, luciferase, dry powder (AID 651620); type: functional; settings: Mycobacterium tuberculosis

Chain of Cytochrome P450 3A4 (P08684 whole entry): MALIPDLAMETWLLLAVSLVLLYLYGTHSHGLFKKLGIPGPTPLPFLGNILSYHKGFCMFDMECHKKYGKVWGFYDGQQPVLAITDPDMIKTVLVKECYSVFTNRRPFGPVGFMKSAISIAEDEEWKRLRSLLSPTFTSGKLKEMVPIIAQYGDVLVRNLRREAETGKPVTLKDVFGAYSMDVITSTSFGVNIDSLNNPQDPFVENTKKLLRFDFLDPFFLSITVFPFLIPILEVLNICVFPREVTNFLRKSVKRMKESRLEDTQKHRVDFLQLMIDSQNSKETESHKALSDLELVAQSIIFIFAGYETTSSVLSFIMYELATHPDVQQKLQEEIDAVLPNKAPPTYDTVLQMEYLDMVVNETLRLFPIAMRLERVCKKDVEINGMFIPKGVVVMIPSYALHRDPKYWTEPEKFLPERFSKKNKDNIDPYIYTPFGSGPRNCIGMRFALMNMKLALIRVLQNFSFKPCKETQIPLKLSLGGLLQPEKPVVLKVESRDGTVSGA
Chain of Protein Wnt-3a (P27467 whole entry): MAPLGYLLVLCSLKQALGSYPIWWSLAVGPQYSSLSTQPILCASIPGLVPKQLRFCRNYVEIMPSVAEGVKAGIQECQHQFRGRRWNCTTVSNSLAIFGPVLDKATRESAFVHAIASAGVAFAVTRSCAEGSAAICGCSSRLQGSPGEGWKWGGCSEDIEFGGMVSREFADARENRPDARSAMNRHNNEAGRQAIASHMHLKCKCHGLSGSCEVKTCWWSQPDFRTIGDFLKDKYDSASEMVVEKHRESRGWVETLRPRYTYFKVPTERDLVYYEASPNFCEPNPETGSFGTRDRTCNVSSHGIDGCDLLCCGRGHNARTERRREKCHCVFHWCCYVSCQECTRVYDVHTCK

CCOC(=O)C1CCCN(C(=O)c2sc3nc(-c4ccc(OC)cc4)cn3c2C)C1 (stereo not drawn)
IC50 [1]: 5.85 µM (active)
AC50 [2]: 14.1 µM (inconclusive)

COc1ccc2[nH]c(-c3ccc(N)cc3)nc2c1
EC50 [3]: > 50 µM (not active)

CCCCCCC[N+](CC)(CC)CCCCc1ccc(Cl)cc1
AC50 [4]: 4.29 µM (active)
IC50 [5]: 2.74 µM (active)
IC50 [6]: > 10 µM (inactive)
IC50 [7]: > 10 µM (inactive)

O=c1nc(Nc2ccc(OCc3ccccc3)cc2)sc2ncccc12
IC50 [8]: 2.86 µM (active)
CC50 [9]: > 25 µM (active)
IC50 [10]: 2.38 µM (active)
IC50 [11]: 0.94 µM (active)
IC50 [12]: 2.79 µM (active)

CC(C)NC(=O)N1[C@H](C#N)[C@H](c2ccc(C#CC3CCCC3)cc2)[C@@H]1CO
AC50 [13]: 3.52 µM (active)
AC50 [14]: 36.7 µM (active)
AC50 [15]: 0.803 µM (active)
AC50 [16]: 0.684 µM (active)
AC50 [17]: 0.845 µM (active)
AC50 [18]: 0.887 µM (active)

O=C(CCS(=O)(=O)Cc1ccccc1)Nc1nc2c(s1)CCCC2
IC50 [19]: 13.4 µM (active)

Cc1ccc2[nH]c(CSc3nc(C)ccc3C#N)nc2c1
EC50 [20]: > 120 µM (not active)
AC50 [21]: > 52 µM (inactive)
AC50 [22]: > 52 µM (inactive)
AC50 [23]: 30.8 µM (active)
AC50 [24]: 33.5 µM (active)
EC50 [25]: > 67.5 µM (inactive)
EC50 [26]: > 67.5 µM (inactive)

COc1ccccc1-c1nnc(SCc2ccccn2)o1
IC90 [27]: 31 µM (active)
IC90 [28]: 31 µM (active)
